Results as given in publication PMC9853328, “Potent Platinum(IV) Prodrugs That Incorporate a Biotin Moiety to Selectively Target Cancer Cells” (Pharmaceutics, 2022).
Where two headings read alike, the source gives them in different places.

Assays:
[1] = test system: BE2-C neuroblastoma cells; parameters: method as in earlier work; conditions: MTT, same method, taken from the literature; ref [18],[46],[47]; read-out: GI50 ± SEM, BE2-C; cited from earlier work
[2] = test system: HT29 colon cancer cells; parameters: method as in earlier work; conditions: MTT, same method, taken from the literature; ref [18],[46],[47]; read-out: GI50 ± SEM, HT29; cited from earlier work
[3] = test system: Du145 prostate cancer cells; parameters: method as in earlier work; conditions: MTT, same method, taken from the literature; ref [18],[46],[47]; read-out: GI50 ± SEM, Du145; cited from earlier work
[4] = test system: MCF-7 breast cancer cells; parameters: method as in earlier work; conditions: MTT, same method, taken from the literature; ref [18],[46],[47]; read-out: GI50 ± SEM, MCF-7; cited from earlier work
[5] = test system: H460 lung cancer cells; parameters: method as in earlier work; conditions: MTT, same method, taken from the literature; ref [18],[46],[47]; read-out: GI50 ± SEM, H460; cited from earlier work
[6] = test system: cisplatin-resistant ADDP ovarian (subclone of A2780) cancer cells; parameters: method as in earlier work; conditions: MTT, same method, taken from the literature; ref [18],[46],[47]; read-out: GI50 ± SEM, ADDP; cited from earlier work
[7] = test system: MIA pancreas cancer cells; parameters: method as in earlier work; conditions: MTT, same method, taken from the literature; ref [18],[46],[47]; read-out: GI50 ± SEM, MIA; cited from earlier work
[8] = test system: non-cancerous MCF10A breast cell line; parameters: method as in earlier work; conditions: MTT, same method, taken from the literature; ref [18],[46],[47]; read-out: GI50 ± SEM, MCF10A; cited from earlier work
[9] = test system: A431 skin cancer cells; parameters: method as in earlier work; conditions: MTT, same method, taken from the literature; ref [18],[46],[47]; read-out: GI50 ± SEM, A431; cited from earlier work
[10] = test system: ADDP (subclone of A2780) versus A2780 ovarian cancer cell lines; experiment: Resistance factor, GI50 in ADDP/GI50 in A2780; assay type: cell-based
[11] = test system: SJ-G2 glioblastoma cells; parameters: method as in earlier work; conditions: MTT, same method, taken from the literature; ref [18],[46],[47]; read-out: GI50 ± SEM, SJ-G2; cited from earlier work
[12] = test system: U87 glioblastoma cells; parameters: method as in earlier work; conditions: MTT, same method, taken from the literature; ref [18],[46],[47]; read-out: GI50 ± SEM, U87; cited from earlier work
[13] = test system: A2780 ovarian cancer cells; parameters: method as in earlier work; conditions: MTT, same method, taken from the literature; ref [18],[46],[47]; read-out: GI50 ± SEM, A2780; cited from earlier work
[14] = test system: BE2-C neuroblastoma cells; experiment: MTT in vitro cytotoxicity assay, BE2-C; assay type: cell-based; conditions: 72 h drug exposure, n = 3, read-out: GI50 ± SEM, BE2-C
Description: (§1) The in vitro cytotoxicity assays were undertaken at Calvary Mater Hospital, Waratah, NSW, Australia, following a method previously published in the literature. A stock solution for each compound was prepared in DMSO (30 mM) and stored at −20 °C. The cell lines used in the study include HT29 colon, U87 glioblastoma, MCF-7 breast, A2780 ovarian, H460 lung, A431 skin, Du145 prostate, BE2-C neuroblastoma, SJ-G2 glioblastoma, MIA pancreas, and cisplatin-resistant ADDP ovarian (subclone of A2780) cancer cells, as well as the non-cancerous-derived MCF10A breast cell line. The cancer cell lines were cultured in a humidified atmosphere 5% CO2 at 37 °C and maintained in Dulbecco’s modified Eagle’s medium (Trace Biosciences, Sydney, Australia), supplemented with 10% foetal bovine serum, sodium bicarbonate (10 mM), penicillin (100 IU/mL), streptomycin (100 µg/mL), and glutamine (4 mM). The non-cancerous MCF10A cell line was maintained in DMEM:F12 (1:1) cell culture media, with 5% heat inactivated horse serum, supplemented with penicillin (50 IU/mL), streptomycin (50 µg/mL), glutamine (2 mM), HEPES (20 mM), epidermal growth factor (20 ng/mL), hydrocortisone (500 ng/mL), cholera toxin (100 ng/mL), and insulin (10 µg/mL). Cells were plated in duplicate in medium (100 µL) at a density of 2500–4000 cells per well in 96-well plates. On day 0, (24 h after plating) when the cells were in logarithmic growth, medium (100 μL) with or without the test agent was added to each well. The growth inhibitory effects were evaluated after 72 h drug exposure, using the MTT (3-(4,5-dimethylthiazol-2-yl)-2,5-diphenyltetrazolium bromide) assay, with the absorbance read at 540 nm. An eight-point dose–response curve was produced, which was used to determine the concentration at which growth was inhibited by 50% (GI50). This calculation was based on the difference between the optical density values on day 0 and those at the end of drug exposure. […] Experiments were conducted on three separate occasions and GI50 values were reported as the mean and standard error of the mean.

[15] = test system: A2780 ovarian cancer cells; experiment: MTT in vitro cytotoxicity assay, A2780; assay type: cell-based; conditions: 72 h drug exposure, n = 3, read-out: GI50 ± SEM, A2780
Description: as §1

[16] = test system: A431 skin cancer cells; experiment: MTT in vitro cytotoxicity assay, A431; assay type: cell-based; conditions: 72 h drug exposure, n = 3, read-out: GI50 ± SEM, A431
Description: as §1

[17] = test system: MIA pancreas cancer cells; experiment: MTT in vitro cytotoxicity assay, MIA; assay type: cell-based; conditions: 72 h drug exposure, n = 3, read-out: GI50 ± SEM, MIA
Description: as §1

[18] = test system: cisplatin-resistant ADDP ovarian (subclone of A2780) cancer cells; experiment: MTT in vitro cytotoxicity assay, ADDP; assay type: cell-based; conditions: 72 h drug exposure, n = 3, read-out: GI50 ± SEM, ADDP
Description: as §1

[19] = test system: MCF-7 breast cancer cells; experiment: MTT in vitro cytotoxicity assay, MCF-7; assay type: cell-based; conditions: MTT, 72 h drug exposure, n = 3; read-out: GI50 ± SEM, MCF-7
[20] = Lipophilicity by RP-HPLC (logkw); assay type: physicochemical; conditions: capacity factor in 100% water
Description: HPLC experiments were carried out using an Agilent Technologies (Melbourne, Australia) 1260 Infinity instrument, equipped with a Phenomenex (Sydney, Australia) Onyx^TM Monolithic C18 reverse phase column (100 × 4.6 mm, 130 Å). The mobile phase was made up of 0.06% TFA in water (solvent A) and 0.06% TFA in an acetonitrile:water (9:1) mixture (solvent B). Samples were eluted over a gradient of 0–100% (% B) for 15 min, at a flow rate of 1 mL/min, with a sample injection volume of 10 µL. Eluting peaks were detected using a PDA at 254 nm.
For lipophilicity experiments, RP-HPLC was utilised to determine the logkw of each compound, similarly to what has been previously published for similar complexes. Samples were eluted at various isocratic percentages, ranging from 18–30% solvent B. To determine the dead volume of the column, potassium iodide was used as an external dead volume marker. The retention time of each sample in each isocratic run ( tr ) and the dead volume time ( t0 ) were both substituted in Equation (1) to calculate the capacity factor ( k ). (1) k=tr−t0/t0
Following this, logk was plotted against the percentage of ACN. For each complex, a minimum of four concentrations of ACN were used. This produced a linear graph with the equation in the form:(2) logk=Sφ+logkw where S is the slope, φ is the percentage of ACN, and logkw is the y-intercept, which represents the capacity factor of the compound in 100% water.
It is important to explore the lipophilicity of a drug, as it is widely believed that increased lipophilicity results in greater cellular accumulation. To understand the lipophilicity of 1–4, RP-HPLC was utilised to determine the logkw of each complex. To calculate this, each complex was eluted at different isocratic percentages, whereby the retention time was used in Equation (1) to calculate the capacity factor (k). The percentage of the organic solvent was then plotted against log k for each isocratic percentage, producing a linear equation that allowed for logkw to be deduced using Equation (2) (Figure S38). The logkw value represents the capacity factor of the compound in 100% water and can be used to compare a series of compounds. Since 1–4 comprise the same axially bound ligand, biotin, the lipophilicity was influenced by the groups on the PL. The logkw of each complex is presented in Table 1, with their corresponding PL. The increasing lipophilicity of the complexes followed the order: 1 < 4 < 2 < 3.

[21] = test system: SJ-G2 glioblastoma cells; experiment: MTT in vitro cytotoxicity assay, SJ-G2; assay type: cell-based; conditions: 72 h drug exposure, n = 3, read-out: GI50 ± SEM, SJ-G2
Description: as §1

[22] = test system: U87 glioblastoma cells; experiment: MTT in vitro cytotoxicity assay, U87; assay type: cell-based; conditions: 72 h drug exposure, n = 3, read-out: GI50 ± SEM, U87
Description: as §1

[23] = test system: non-cancerous MCF10A breast cell line; experiment: MTT in vitro cytotoxicity assay, MCF10A; assay type: cell-based; conditions: 72 h drug exposure, n = 3, read-out: GI50 ± SEM, MCF10A
Description: as §1

[24] = test system: HT29 colon cancer cells; experiment: MTT in vitro cytotoxicity assay, HT29; assay type: cell-based; conditions: for GI50: MTT, 72 h drug exposure, n = 3, read-out: GI50 ± SEM, HT29
Description: as §1

[25] = test system: panel of cancer cell lines; experiment: MTT cytotoxicity averaged across the panel of cancer cell lines; assay type: cell-based; conditions: for enhanced activity compared to platinum(II) precursor across the cancer cell lines: across all cancer cell lines; for GI50: calculated from the panel of cancer cell lines tested (Table S4)
[26] = test system: Du145 prostate cancer cells; experiment: MTT in vitro cytotoxicity assay, Du145; assay type: cell-based; conditions: for GI50: MTT; for number-fold potency against cisplatin, Du145 prostate: ratio of GI50 values
Description: as §1

[27] = test system: H460 lung cancer cells; experiment: MTT in vitro cytotoxicity assay, H460; assay type: cell-based; conditions: 72 h drug exposure, n = 3, read-out: GI50 ± SEM, H460
Description: as §1

Row | Structure (SMILES) | GI50 [1] [nM] | GI50 [2] [nM] | GI50 [3] [nM] | GI50 [4] [nM] | GI50 [5] [nM] | GI50 [6] [nM] | GI50 [7] [nM] | GI50 [8] [nM] | GI50 [9] [nM] | Resistance factor (RF) [10] | GI50 [11] [nM] | GI50 [12] [nM] | GI50 [13] [nM] | GI50 [14] [nM] | GI50 [15] [nM] | GI50 [16] [nM] | GI50 [17] [nM] | GI50 [18] [nM] | GI50 [19] [nM] | logkw [20] | also measured
1 | N.N.[Cl][Pt][Cl] [Cisplatin, cisplatin] | 1900 ± 200 | 11300 ± 1900 | 1200 ± 100 | 6500 ± 800 | 900 ± 200 | 28000 ± 1700 | 7500 ± 1300 | 5200 ± 520 | 2400 ± 300 | 28.00 | 400 ± 100 | 3800 ± 1100 | 1000 ± 100 |  |  |  |  |  |  |  | Resistance factor (RF) ([10]; listed as cisplatin): 28
2 | O=C1N[C@H]2[C@H](CS[C@H]2CCCCC(=O)[O][Pt-2]23([OH])([NH2+][C@H]4CCCC[C@@H]4[NH2+]2)[n+]2cccc4ccc5ccc[n+]3c5c42)N1.O=[N+]([O-])[O-].O=[N+]([O-])[O-] [Complex 1, [Pt(1,10-phenthroline)(1S,2S-diaminocyclohexane)(biotin)(hydroxido)](NO3)2] |  |  |  |  |  |  |  |  |  | 0.96 |  |  |  | 1000 ± 100 | 250 ± 20 | 600 ± 110 | 210 ± 30 | 240 ± 10 | 850 ± 140 | 0.64 | GI50 [21]: 290 ± 70 nM; GI50 [22]: 970 ± 150 nM; GI50 [23]: 280 ± 40 nM; GI50 [24]: 170 ± 60 nM; number-fold potency against cisplatin, HT29 colon ([24]; ratio of GI50 values, 72 h): 66 fold; enhanced activity compared to platinum(II) precursor across the cancer cell lines [25]: comparable activity; GI50 [25]: 455 nM; GI50 ([26]; 72 h drug exposure, n = 3, read-out: GI50 ± SEM, Du145): 120 ± 40 nM; number-fold potency against cisplatin, Du145 prostate ([26]; 72 h): 10 fold; GI50 [27]: 300 ± 20 nM
3 | Cc1c(C)c2ccc[n+]3c2c2c1ccc[n+]2[Pt-2]31([OH])([O]C(=O)CCCC[C@@H]2SC[C@@H]3NC(=O)N[C@@H]32)[NH2+][C@H]2CCCC[C@@H]2[NH2+]1.O=[N+]([O-])[O-].O=[N+]([O-])[O-] [Complex 2, [Pt(5,6-dimethyl-1,10-phenanthroline)(1S,2S-diaminocyclohexane)(biotin)(hydroxido)](NO3)2] |  |  |  |  |  |  |  |  |  | 0.55 |  |  |  | 100 ± 10 | 20 ± 4 | 36 ± 6 | 10 ± 2 | 11 ± 4 | 22 ± 8 | 0.78 | GI50 [21]: 36 ± 10 nM; GI50 [22]: 32 ± 8 nM; GI50 [23]: 14 ± 4 nM; GI50 [24]: 11 ± 5 nM; enhanced activity compared to platinum(II) precursor across the cancer cell lines [25]: ~ 2 fold; GI50 [25]: 27 nM; GI50 ([26]; 72 h, read-out: GI50, Du145 prostate cancer cell line): 4 nM; number-fold potency against cisplatin, Du145 prostate ([26]; 72 h): 300 fold; GI50 [27]: 18 ± 4 nM
4 | [Cl-].[Cl-].c1cc2ccc3ccc[n+]4c3c2[n+](c1)[Pt-2]41[NH2+][C@H]2CCCC[C@@H]2[NH2+]1 [PHENSS(II)] | 390 ± 60 | 87 ± 27 | 110 ± 27 | 250 ± 41 | 300 ± 32 | 230 ± 49 | 240 ± 22 | 240 ± 60 | 340 ± 100 | 0.793 | 440 ± 55 | 1200 ± 340 | 290 ± 37 |  |  |  |  |  |  |  | 
5 | O=[N+]([O-])[O-].O=[N+]([O-])[O-].[OH][Pt-2]12([OH])([NH2+][C@H]3CCCC[C@@H]3[NH2+]1)[n+]1cccc3ccc4ccc[n+]2c4c31 [PHENSS(IV)] | 3000 ± 530 | 710 ± 300 | 310 ± 92 | 16000 ± 4500 | 1700 ± 200 | 1300 ± 350 | 3400 ± 2200 | 1700 ± 200 | 4300 ± 530 | 1.625 | 1700 ± 350 | 4900 ± 610 | 800 ± 84 |  |  |  |  |  |  |  | 
